Assay results published in US20090311249A1, “Capecitabine Combination Therapy” (priority 2006, published 2009).

Key:
[1] = Phase 1b trial: pharmacokinetics of CAPE and its key metabolites in plasma; format: in vivo, human; conditions: AP23573 co-administered with CAPE
Description: Planned pharmacokinetic (PK) and pharmacodynamic (PD) studies included: analysis of plasma, peripheral blood mononuclear cells (PBMC), skin, and tumor samples for effects on mTOR associated pathways*, VEGF* levels and the metabolism of CAPE and fluoropyrimidines (results of studies marked with a “*” are not presented herein).

[2] = Phase I and phase 2 single-agent trials of AP23573; format: in vivo, human; conditions: other dosing schedules
[3] = In vitro combination experiments of AP23573 with cytotoxics; format: cell-based; conditions: with several cytotoxics including 5-fluorouracil (5FU)
[4] = test system: VEGF production in tumor cells; conditions: in vitro; cited from earlier work
VEGF = conditions: patients treated with AP23573; cited from earlier work

Compound | pharmacokinetics of 5FU [1] | dose limiting toxicity [2] | combination effect in vitro [3] | effect on VEGF production [4] | VEGF levels (VEGF)
O=c1[nH]cc(F)c(=O)[nH]1 [5FU, 5-fluorouracil] | not be impacted |  |  |  | 
CO[C@H]1C[C@@H]2CC[C@@H](C)[C@@](O)(O2)C(=O)C(=O)N2CCCC[C@H]2C(=O)O[C@H]([C@H](C)C[C@@H]2CC[C@@H](OP(C)(C)=O)[C@H](OC)C2)CC(=O)[C@H](C)/C=C(\C)[C@@H](O)[C@@H](OC)C(=O)[C@H](C)C[C@H](C)/C=C/C=C/C=C/1C [AP23573] |  | oral mucositis | at least additive | inhibits VEGF production | reduced VEGF levels
